Test results taken from patent US20220257722A1, “COMPOSITIONS AND METHODS OF TREATING AND PREVENTING SYSTEMIC COMPLICATIONS OF ACUTE ILLNESS” (United States Government As Represented By The Department …, priority 2019, published 2022).

Assays:
[1] = test system: rat small intestine; assay: In vivo small intestinal perfusion: FITC-LPS transport into portal vein and mesenteric lymph during OA/TCA exposure; details: for TDG-related augmentation of FITC-LPS transport into the lymph: L-NAME 0.1 mM perfused or PG97-269 0.3 mg/kg iv before TDG; for inhibitory effect of TDG on FITC-LPS transport into the PV: L-NAME 0.1 mM perfused or PG97-269 0.3 mg/kg iv before TDG 50 μg/kg iv; for AUC0-90 of lymph FITC-LPS compared with the +TDG group / TDG-induced reduction of AUC0-90 PV FITC-LPS / lymph output in TDG-treated rats: L-NAME or PG97-269 before TDG; for AUC0-90 of PV FITC-LPS / AUC0-90 of lymph FITC-LPS: OA/TCA-augmented, 0-90 min; for OA/TCA-induced FITC-LPS transport into the PV: intraduodenal FITC-LPS 50 μg/ml + OA 30 mM/TCA 10 mM, anesthetized rats; for FITC-LPS transport into the lymph: intraduodenal FITC-LPS + OA/TCA
Procedure: In vivo small intestinal perfusion. Intraduodenal perfusions combined with PV and mesenteric lymph cannulation were carried out (1, 48). Under isoflurane anesthesia (2%), the animal was placed supine on a recirculating heating block system (Summit Medical Systems, Bend, Oreg., USA) in order to maintain body temperature at 36-37° C. Prewarmed saline was infused via the right femoral vein at 1.08 ml/h using a Harvard infusion pump (Harvard Apparatus, Holliston, Mass., USA). The abdomen was incised, and the PV was cannulated with a polyethylene (PE)-50 tube attached with 23G needle and fixed by methylacrylate adhesive at the insertion site. The tube was filled with heparinized saline enabling repeated blood sampling. PV samples (0.2 ml each) were collected every 15 min, followed by 0.2 ml flushes with heparinized saline. […] The lymph solution was continuously collected into a 1.5-ml tube every 15 min. A polyethylene tube (diameter 5 mm) filled with PBS was inserted through the forestomach and tied at 0.5 cm caudal from the pyloric ring. After bolus perfusion of 2 ml PBS into the duodenum from the tube, followed by stabilization for ˜30 min, the time was set as t=0 min. FITC-LPS (50 μg/ml) in 2-ml PBS with or without OA (30 mM) and TCA (10 mM) was bolus perfused at t=0 min. In order to maintain lymph flow, 2-ml PBS was perfused every 30 min. PV and lymph samples were collected every 15 min for 90 min. Blood samples were collected in a 0.5-ml tube containing 1 μl each of EDTA (0.5 M), and immediately centrifuged at 5,000 × g for 5 min, after which the plasma was stored at −80° C. until use. The lymph solution was weighed to measure its volume and centrifuged, with the supernatant stored at −80° C. until use. At 90 min, after collection of PV and lymph samples, arterial blood was taken from abdominal aorta for a reference sample, followed by euthanasia by thoracotomy.
The appearance of FITC-LPS into the PV plasma and lymph was assessed by fluorescence measurement using Synergy-2. Fluorescence intensity in the t=0 sample as background was subtracted from the fluorescence values measured in other time point samples. For lymph samples, the FITC-LPS concentration was multiplied by the lymph output in order to calculate total FITC-LPS appearance. FITC-LPS appearance was expressed as PV FITC-LPS content (ng/ml) or FITC-LPS transport into lymph (ng/15 min). Furthermore, total FITC-LPS transport into the PV and lymph was assessed by calculating the area under the curve (AUC) during 0-90 min of FITC-LPS appearance (AUC0-90) using the trapezoidal rule and expressed as AUC0-90 of PV FITC-LPS (μg·min/ml) and AUC0-90 of lymph FITC-LPS (μg).
Intestinal perfusion study: drug treatment. The lipid raft inhibitor MβCD (1 mM), the CD36 inhibitor SSO (1 mM), and PL81 (3%) were added to the initial perfusion of 2-ml PBS at t=−30 min, followed by their addition to the luminal FITC-LPS/OA/TCA solution at t=0 min.
Effect of TDG on intestinal LPS transport. The stable, DPP4-resistant analog of GLP-2, TDG (13) was used to examine the acute effect of GLP-2 on LPS transport into PV and mesenteric lymph in vivo. TDG (50 μg/kg) was bolus injected iv 15 min before the luminal FITC-LPS/OA/TCA perfusion (at t=−15 min). L-NAME was added to the first perfusion of 2 ml PBS (at t=−30 min). PG97-269 (0.3 mg/kg) was bolus injected iv 20 min before the luminal FITC-LPS/OA/TCA perfusion (at t=−20 min).

[2] = test system: rat jejunal mucosa; assay: LPS mucosal-to-serosal transport in rat jejunal mucosa read by TLR4 reporter cell assay; format: cell-based; details: same samples as FITC measurement; SSO 0.1 mM or MβCD 1 mM
Procedure: TLR-4 reporter cell assay. Since the LAL test may overestimate LPS levels due to nonspecific detection of […] (66), and FITC-LPS method measures LPS fluorescence without regard to the functional activity of LPS, experiments were carried out to determine whether the samples contained intact, functional LPS that is a preferential TLR-4 ligand. In order to confirm that intact LPS was measured in the samples used for measurements in the Ussing chamber study, a TLR4 reporter cell assay was used that consists of HEK293 cells co-transfected with murine TLR4, myeloid differentiation 2 and CD14 co-receptor genes and an inducible secreted embryonic alkaline phosphatase (SEAP) reporter gene with nuclear factor-kappa B (NF-kB) and activator protein 1 (AP-1) binding motifs (HEK-Blue mTLR-4, InvivoGen, San Diego, Calif.). Cells were harvested in a 96-well plate with standards and samples for 24 hr. The presence of LPS was detected as induced SEAP activity in the medium using HEK-Blue Detection (InvivoGen) by measuring absorbance at 655 nm with Synergy-2 24 hrs after the addition of standards and samples, according to the manufacturer's protocol. Ultrapure LPS from E. coli 055:B5 (LPS-B5 Ultrapure, InvivoGen) was used as standard at a range of 0.01-100 ng/ml.

| Molecule | TDG-related augmentation of FITC-LPS transport into the lymph [1] | inhibitory effect of TDG on FITC-LPS transport into the PV [1] | AUC0-90 of lymph FITC-LPS compared with the +TDG group [1] | TDG-induced reduction of AUC0-90 PV FITC-LPS [1] | lymph output in TDG-treated rats [1] | LPS m-to-s transport during OA/TCA exposure by TLR4 reporter cell assay [2] | AUC0-90 of PV FITC-LPS [1] | AUC0-90 of lymph FITC-LPS [1] | OA/TCA-induced FITC-LPS transport into the PV [1] | FITC-LPS transport into the lymph [1] | lymphatic output ([1]; t=0-30 min, TDG 50 μg/kg iv at t=-15 min vs non-pretreated controls) |
| --- | --- | --- | --- | --- | --- | --- | --- | --- | --- | --- | --- |
| COC(=O)[C@@H](N)CCCNC(=N)N[N+](=O)[O-] [L-NAME, Nω-nitro-L-arginine methyl ester] | inhibited | reduced | reduced | reversed | reduced | – | – | – | – | – | – |
| CCCCCCCC/C=C\CCCCCCCC(=O)ON1C(=O)CC(S(=O)(=O)O)C1=O (stereo not shown) [SSO, sulfosuccinimidyl oleate] | – | – | – | – | – | abolished | failed to affect | no effect | inhibited | no effect | – |
| CC[C@H](C)[C@H](NC(=O)[C@H](Cc1ccccc1)NC(=O)[C@H](CC(=O)O)NC(=O)[C@H](CCCNC(=N)N)NC(=O)[C@H](C)NC(=O)[C@H](C)NC(=O)[C@H](CC(C)C)NC(=O)[C@H](CC(N)=O)NC(=O)[C@H](CC(=O)O)NC(=O)[C@H](CC(C)C)NC(=O)[C@@H](NC(=O)[C@@H](NC(=O)[C@H](CC(N)=O)NC(=O)[C@H](CCSC)NC(=O)[C@H](CCC(=O)O)NC(=O)[C@H](CC(=O)O)NC(=O)[C@H](CO)NC(=O)[C@H](Cc1ccccc1)NC(=O)[C@H](CO)NC(=O)CNC(=O)[C@H](CC(=O)O)NC(=O)CNC(=O)[C@@H](N)Cc1c[nH]cn1)[C@@H](C)O)[C@@H](C)CC)C(=O)N[C@@H](CC(N)=O)C(=O)N[C@@H](Cc1c[nH]c2ccccc12)C(=O)N[C@@H](CC(C)C)C(=O)N[C@H](C(=O)N[C@@H](CCC(N)=O)C(=O)N[C@H](C(=O)N[C@@H](CCCCN)C(=O)N[C@H](C(=O)N[C@H](C(=O)N[C@@H](CC(=O)O)C(=O)O)[C@@H](C)O)[C@@H](C)CC)[C@@H](C)O)[C@@H](C)CC [TDG] | – | – | – | – | – | – | reduced | no significant effect | abolished | rapidly increased | rapid increase |
| [Ac-His^1, D-Phe^2, Lys^15, Arg^16, Leu^27]-VIP(1-7)-GRF(8-27) (HFDAVFTNSYRKVLKRLSARKLLQDIL; HELM PEPTIDE1{[ac].H.[dF].D.A.V.F.T.N.S.Y.R.K.V.L.K.R.L.S.A.R.K.L.L.Q.D.I.L.[am]}$$$$V2.0; SMILES CC[C@H](C)[C@H](NC(=O)[C@H](CC(=O)O)NC(=O)[C@H](CCC(N)=O)NC(=O)[C@H](CC(C)C)NC(=O)[C@H](CC(C)C)NC(=O)[C@H](CCCCN)NC(=O)[C@H](CCCNC(=N)N)NC(=O)[C@H](C)NC(=O)[C@H](CO)NC(=O)[C@H](CC(C)C)NC(=O)[C@H](CCCNC(=N)N)NC(=O)[C@H](CCCCN)NC(=O)[C@H](CC(C)C)NC(=O)[C@@H](NC(=O)[C@H](CCCCN)NC(=O)[C@H](CCCNC(=N)N)NC(=O)[C@H](Cc1ccc(O)cc1)NC(=O)[C@H](CO)NC(=O)[C@H](CC(N)=O)NC(=O)[C@@H](NC(=O)[C@H](Cc1ccccc1)NC(=O)[C@@H](NC(=O)[C@H](C)NC(=O)[C@H](CC(=O)O)NC(=O)[C@@H](Cc1ccccc1)NC(=O)[C@H](Cc1c[nH]cn1)NC(C)=O)C(C)C)[C@@H](C)O)C(C)C)C(=O)N[C@@H](CC(C)C)C(N)=O) [PG97-269] | inhibited | no effect | reduced | no effect | reduced | – | – | – | – | – | – |
| methyl-β-cyclodextrin [MβCD] | – | – | – | – | – | abolished | abolished | no effect | abolished | no effect | – |
